Experimental data reported in ChEMBL document CHEMBL3390838, “Synthesis, anti-proliferative and proapoptotic activity of novel oleanolic acid azaheterocyclic derivatives” (Medchemcomm, 2012).
The source made the active and inactive calls. The rule behind the calls is not given here.

Key:
K562 = test: Cytotoxicity against human K562 cells after 72 hrs by MTT assay; assay type: functional, cell-based; conditions: K562, 72 h
[1] = Cytotoxicity against human Bel7404 cells after 72 hrs by MTT assay; assay type: functional, cell-based; conditions: BEL-7404, 72 h
[2] = Cytotoxicity against human HL60 cells after 72 hrs by MTT assay; assay type: functional, cell-based; conditions: HL-60, 72 h
MDA-MB-231 = test: Cytotoxicity against human MDA-MB-231 cells after 72 hrs by MTT assay; assay type: functional, cell-based; conditions: MDA-MB-231, 72 h
[3] = Cell cycle arrest in human Bel7404 cells assessed as accumulation at S phase at 40 uM after 24 hrs by PI-based flow cytometry ( Rvb = 43.38 % ); assay type: functional; conditions: BEL-7404
BEL-7404 tumor cell line [4] = test: Induction of apoptosis in human Bel7404 cells assessed as reduction in Bcl2 protein expression at 60 uM at 36 hrs by Western blot analysis relative to control; assay type: functional
[5] = Cell cycle arrest in human Bel7404 cells assessed as decrease in G2/M phase after 24 hrs by PI-based flow cytometry; assay type: functional; conditions: BEL-7404
BEL-7404 tumor cell line [6] = test: Induction of apoptosis in human Bel7404 cells assessed as increase in Bax protein expression at 60 uM at 36 hrs by Western blot analysis relative to control; assay type: functional
BEL-7404 tumor cell line [7] = test: Induction of apoptosis in human Bel7404 cells assessed as apoptotic bodies at 60 uM after 48 hrs using Hoechst staining by fluorescence microscopy; assay type: functional, cell-based
BEL-7404 tumor cell line [8] = test: Induction of apoptosis in human Bel7404 cells assessed as decrease in procaspase 3 protein level at 60 uM at 24 hrs by Western blot analysis relative to control; assay type: functional
BEL-7404 tumor cell line [9] = test: Induction of apoptosis in human Bel7404 cells assessed as increase in cytochrome c protein level at 60 uM at 36 hrs by Western blot analysis relative to control; assay type: functional
BEL-7404 tumor cell line [10] = test: Induction of apoptosis in human Bel7404 cells assessed as decrease in procaspase 3 protein level at 60 uM at 48 hrs by Western blot analysis relative to control; assay type: functional
[11] = Cytotoxicity against human L02 cells at 20 to 160 uM after 72 hrs by MTT assay; assay type: cell-based; conditions: l02, 72 h
[12] = Cell cycle arrest in human Bel7404 cells assessed as accumulation at G2/M phase at 60 uM after 24 hrs by PI-based flow cytometry ( Rvb = 0.11 % ); assay type: functional; conditions: BEL-7404
BEL-7404 tumor cell line [13] = test: Induction of apoptosis in human Bel7404 cells assessed as decrease in procaspase 3 protein level at 60 uM at 12 hrs by Western blot analysis relative to control; assay type: functional
BEL-7404 tumor cell line [14] = test: Induction of apoptosis in human Bel7404 cells assessed as decrease in procaspase 3 protein level at 60 uM at 36 hrs by Western blot analysis relative to control; assay type: functional
BEL-7404 tumor cell line [15] = test: Induction of apoptosis in human Bel7404 cells assessed as increase in procaspase 9 protein level at 60 uM at 12 hrs by Western blot analysis relative to control; assay type: functional
BEL-7404 tumor cell line [16] = test: Induction of apoptosis in human Bel7404 cells assessed as reduction in Bcl2 protein expression at 60 uM at 24 hrs by Western blot analysis relative to control; assay type: functional
[17] = Cell cycle arrest in human Bel7404 cells assessed as accumulation at G0/G1 phase at 60 uM after 24 hrs by PI-based flow cytometry ( Rvb = 56.50 % ); assay type: functional; conditions: BEL-7404
BEL-7404 tumor cell line [18] = test: Induction of apoptosis in human Bel7404 cells assessed as increase in cytochrome c protein level at 60 uM at 48 hrs by Western blot analysis relative to control; assay type: functional
BEL-7404 tumor cell line [19] = test: Induction of apoptosis in human Bel7404 cells assessed as increase in Bax protein expression at 60 uM at 24 hrs by Western blot analysis relative to control; assay type: functional
[20] = Cell cycle arrest in human Bel7404 cells assessed as accumulation at S phase at 60 uM after 24 hrs by PI-based flow cytometry ( Rvb = 43.38 % ); assay type: functional; conditions: BEL-7404
[21] = Cell cycle arrest in human Bel7404 cells assessed as increase in G0/G1 phase after 24 hrs by PI-based flow cytometry; assay type: functional; conditions: BEL-7404
[22] = Cell cycle arrest in human Bel7404 cells assessed as accumulation at G0/G1 phase at 20 uM after 24 hrs by PI-based flow cytometry ( Rvb = 56.50 % ); assay type: functional; conditions: BEL-7404
[23] = Cell cycle arrest in human Bel7404 cells assessed as accumulation at G0/G1 phase at 40 uM after 24 hrs by PI-based flow cytometry ( Rvb = 56.50 % ); assay type: functional; conditions: BEL-7404
BEL-7404 tumor cell line [24] = test: Induction of apoptosis in human Bel7404 cells assessed as increase in Bax protein expression at 60 uM at 48 hrs by Western blot analysis relative to control; assay type: functional
BEL-7404 tumor cell line [25] = test: Induction of apoptosis in human Bel7404 cells assessed as increase in cytochrome c protein level at 60 uM at 12 hrs by Western blot analysis relative to control; assay type: functional
BEL-7404 tumor cell line [26] = test: Induction of apoptosis in human Bel7404 cells assessed as increase in procaspase 9 protein level at 60 uM at 48 hrs by Western blot analysis relative to control; assay type: functional
[27] = Cell cycle arrest in human Bel7404 cells assessed as accumulation at S phase at 20 uM after 24 hrs by PI-based flow cytometry ( Rvb = 43.38 % ); assay type: functional; conditions: BEL-7404
BEL-7404 tumor cell line [28] = test: Induction of apoptosis in human Bel7404 cells assessed as membrane blebbing at 60 uM after 48 hrs using Hoechst staining by fluorescence microscopy; assay type: functional, cell-based
[29] = Cell cycle arrest in human Bel7404 cells assessed as accumulation at G2/M phase at 20 uM after 24 hrs by PI-based flow cytometry ( Rvb = 0.11 % ); assay type: functional; conditions: BEL-7404
[30] = Cell cycle arrest in human Bel7404 cells assessed as accumulation at G2/M phase at 40 uM after 24 hrs by PI-based flow cytometry ( Rvb = 0.11 % ); assay type: functional; conditions: BEL-7404
BEL-7404 tumor cell line [31] = test: Induction of apoptosis in human Bel7404 cells assessed as reduction in Bcl2 protein expression at 60 uM at 12 hrs by Western blot analysis relative to control; assay type: functional
BEL-7404 tumor cell line [32] = test: Induction of apoptosis in human Bel7404 cells assessed as increase in procaspase 9 protein level at 60 uM at 24 hrs by Western blot analysis relative to control; assay type: functional
BEL-7404 tumor cell line [33] = test: Induction of apoptosis in human Bel7404 cells assessed as reduction in Bcl2 protein expression at 60 uM at 48 hrs by Western blot analysis relative to control; assay type: functional
BEL-7404 tumor cell line [34] = test: Induction of apoptosis in human Bel7404 cells assessed as nuclear condensation at 60 uM after 48 hrs using Hoechst staining by fluorescence microscopy; assay type: functional, cell-based
BEL-7404 tumor cell line [35] = test: Induction of apoptosis in human Bel7404 cells assessed as increase in cytochrome c protein level at 60 uM at 24 hrs by Western blot analysis relative to control; assay type: functional
BEL-7404 tumor cell line [36] = test: Induction of apoptosis in human Bel7404 cells assessed as increase in procaspase 9 protein level at 60 uM at 36 hrs by Western blot analysis relative to control; assay type: functional
[37] = Cell cycle arrest in human Bel7404 cells assessed as decrease in S phase after 24 hrs by PI-based flow cytometry; assay type: functional; conditions: BEL-7404
BEL-7404 tumor cell line [38] = test: Induction of apoptosis in human Bel7404 cells assessed as nuclear shrinking at 60 uM after 48 hrs using Hoechst staining by fluorescence microscopy; assay type: functional, cell-based
BEL-7404 tumor cell line [39] = test: Induction of apoptosis in human Bel7404 cells assessed as increase in Bax protein expression at 60 uM at 12 hrs by Western blot analysis relative to control; assay type: functional

SMILES: CC1(C)CC[C@]2(C(=O)O)CC[C@]3(C)C(=CC[C@@H]4[C@@]5(C)CC[C@H](O)C(C)(C)[C@@H]5CC[C@]43C)[C@@H]2C1 [OLEANOLIC_ACID]
- IC50 (K562): 58.1 µM
- IC50 [1]: 57.9 µM
- IC50 [2]: 54.6 µM
- IC50 (MDA-MB-231): 67.9 µM

SMILES: CC(=O)n1nc2c(n1)C(C)(C)[C@@H]1CC[C@]3(C)[C@H](CC=C4[C@@H]5CC(C)(C)CC[C@]5(C(=O)O)CC[C@]43C)[C@@]1(C)C2
- IC50 (K562): 67.6 µM
- IC50 [1]: 45.1 µM
- IC50 [2]: 76.6 µM
- IC50 (MDA-MB-231): 61.7 µM

SMILES: CC1(C)CC[C@]2(C(=O)O)CC[C@]3(C)C(=CC[C@@H]4[C@@]5(C)Cc6cnoc6C(C)(C)[C@@H]5CC[C@]43C)[C@@H]2C1
- IC50 (K562): 11.4 µM
- IC50 [1]: 36 µM
- IC50 [2]: 42.1 µM
- IC50 (MDA-MB-231): 53.7 µM

SMILES: CC1(C)CC[C@]2(C(=O)O)CC[C@]3(C)C(=CC[C@@H]4[C@@]5(C)Cc6nonc6C(C)(C)[C@@H]5CC[C@]43C)[C@@H]2C1
- IC50 (K562): 49.7 µM
- IC50 [1]: 30.9 µM
- IC50 [2]: 46.1 µM
- IC50 (MDA-MB-231): 53.6 µM

SMILES: CC1(C)CC[C@]2(C(=O)O)CC[C@]3(C)C(=CC[C@@H]4[C@@]5(C)Cc6cnc(N)nc6C(C)(C)[C@@H]5CC[C@]43C)[C@@H]2C1
- Activity [3]: 37.1%
- fold change (FC) (BEL-7404 tumor cell line [4]): 0.4
- IC50 (K562): 39.3 µM
- Activity [5]: Dose-dependent effect
- fold change (FC) (BEL-7404 tumor cell line [6]): 7.6
- Activity (BEL-7404 tumor cell line [7]): Active
- fold change (FC) (BEL-7404 tumor cell line [8]): 0.6
- fold change (FC) (BEL-7404 tumor cell line [9]): 2.7
- fold change (FC) (BEL-7404 tumor cell line [10]): 0.1
- Activity [11]: Non-toxic
- Activity [12]: 0%
- fold change (FC) (BEL-7404 tumor cell line [13]): 0.8
- IC50 [1]: 35.1 µM
- fold change (FC) (BEL-7404 tumor cell line [14]): 0.4
- IC50 [2]: 42.6 µM
- fold change (FC) (BEL-7404 tumor cell line [15]): 0.7
- fold change (FC) (BEL-7404 tumor cell line [16]): 0.5
- Activity [17]: 73%
- fold change (FC) (BEL-7404 tumor cell line [18]): 7
- fold change (FC) (BEL-7404 tumor cell line [19]): 1.5
- Activity [20]: 27%
- Activity [21]: Dose-dependent effect
- Activity [22]: 58.4%
- Activity [23]: 62.9%
- IC50 (MDA-MB-231): 44.8 µM
- fold change (FC) (BEL-7404 tumor cell line [24]): 7.7
- fold change (FC) (BEL-7404 tumor cell line [25]): 1.3
- fold change (FC) (BEL-7404 tumor cell line [26]): 0.1
- Activity [27]: 41.6%
- Activity (BEL-7404 tumor cell line [28]): Active
- Activity [29]: 0%
- Activity [30]: 0%
- fold change (FC) (BEL-7404 tumor cell line [31]): 1
- fold change (FC) (BEL-7404 tumor cell line [32]): 0.6
- fold change (FC) (BEL-7404 tumor cell line [33]): 0.4
- Activity (BEL-7404 tumor cell line [34]): Active
- fold change (FC) (BEL-7404 tumor cell line [35]): 2.6
- fold change (FC) (BEL-7404 tumor cell line [36]): 0.2
- Activity [37]: Dose-dependent effect
- Activity (BEL-7404 tumor cell line [38]): Active
- fold change (FC) (BEL-7404 tumor cell line [39]): 1.5
